From patent US20240277732A1, “COMPOSITIONS AND METHODS FOR TREATING BRAIN-GUT DISORDERS” (Enterin, Inc., priority 2018, published 2024)

How the values were obtained:
[1] = Intranasal pharmacokinetics in plasma; assay type: in vivo, Sprague Dawley rats; conditions: Sprague-Dawley, rat, in vivo
Excerpt: The purpose of this example was to evaluate the in vivo distribution and function of aminosterols, such as Aminosterol 1436 and squalamine, following intranasal administration. This experiment relates to the amount of drug needed to obtain a therapeutic result, based on an IN route of administration. The results described below detail that aminosterols such as Aminosterol 1436 act at the level of the hypothalamus following in vivo administration, regardless of the route of administration.

[2] = Brain distribution, food intake and body weight after IP or ICV administration; assay type: in vivo; conditions: 10 and 40 μg ICV, 5 mg/kg IP
Excerpt: The purpose of this example was to evaluate the in vivo distribution of the aminosterol Aminosterol 1436 following intraperitoneal administration (IP) and ICV administration, and to determine the impact the drug has on food intake and body weight when administered IP and ICV.
Additional data regarding in vivo distribution and the effect of the route of administration for an aminosterol is shown in FIG. 7.
This experiment is relevant as the areas of the brain where the aminosterol Aminosterol 1436 localized upon administration are known to control feeding behavior and appetite.

[3] = PK profile IN versus IV bolus; assay type: in vivo; conditions: rat, 2 mg/kg IV bolus
Excerpt: Thus, the amount of aminosterol in the bloodstream is too low to account for the observed pharmacological effect. This means that when administered IN, an aminosterol is having a pharmacological effect via a mechanism other than via plasma concentration of the drug.

[4] = Brain distribution of radiolabeled Aminosterol 1436 after IV or ICV administration; assay type: in vivo; conditions: rats
Excerpt: The purpose of this example was to evaluate the in vivo distribution of Aminosterol 1436 following intracerebroventricular (ICV) and intravenous (IV) administration to rats. ICV injection is an invasive injection technique of substances directly into the cerebrospinal fluid in cerebral ventricles to bypass the blood brain barrier. The results described below detail how aminosterols such as Aminosterol 1436 localize in the brain following in vivo administration, regardless of the route of administration.
Radiolabeled Aminosterol 1436 was injected into rats by two different forms of administration: ICV and IV administration.

[5] = Weight change after IP or IN administration; assay type: in vivo; conditions: mice
Protocol: The purpose of this example was to evaluate and compare the impact on weight following administration of an aminosterol such as Aminosterol 1436 to mice via IP or IN.
Mice were administered: (i) intraperitoneally 1 mg/kg or 10 mg/kg of Aminosterol 1436, (ii) intranasally 0.4 mg/kg of Aminosterol 1436, or (iii) a saline control administered IN. Weight of the mice was then measured for 10 days post-administration.

## CC(C)[C@@H](CC[C@@H](C)[C@H]1CC[C@H]2[C@@H]3[C@H](O)C[C@H]4C[C@@H](NCCCNCCCCNCCCN)CC[C@]4(C)[C@H]3CC[C@]12C)OS(=O)(=O)O [Aminosterol 1436]
[1]
  blood levels after intranasal versus peripherally injected administration: 10 times
[1]; 0.5 mg/kg
  AUC_% Extrap_obs: 47.6%
  AUClast/D: 18700 kg·ng·h/mL/mg
[2]
  effect on food intake over 10 days: significant impact on food intake
  percent change in body weight: decrease in body weight
[3]
  exposure after IV bolus injection: 190 µg·h/mL
[4]; ICV administration
  site of localization in brain: localized to the same regions of the brain
[4]; IV administration
  site of localization in brain: localized in the hypothalamus
[5]; 0.4 mg/kg IN
  weight change over 10 days: decrease in the weight of the mice in an amount comparable to 10 mg/kg of intraperitoneally administered Aminosterol 1436
[5]; 1 mg/kg IP
  weight change over 10 days: compared similarly to the intranasally administered saline control
